The molecules below were run on mutant Huntington (HTT) protein (assay: HTT Mutant HTRF iPSC assay (mHTT protein lowering)). Details: human iPSC derived from a HTT patient with a poly-Q49 mutation.
Format: cell-based
Work on `Cc1cn2nc(-c3cc(F)c4nc(N5CCC6(CCN(C)C6)CC5)oc4c3)cc(C)c2n1` [Compound 470, 6-(2,8-dimethylimidazo[1,2-b]pyridazin-6-yl)-4-fluoro-2-(2-methyl-2,8-diazaspiro[4.5]decan-8-yl)benzo[d]oxazole] yielded an IC50 of less than 100 nM.
Work on `Cc1cc(-c2cc(F)c3nn(C4CCN(C)CC4)cc3c2)cc2cn(C)nc12` [Compound 356, 7-fluoro-2′,7′-dimethyl-2-(1-methylpiperidin-4-yl)-2H,2′H-5,5′-biindazole] yielded an IC50 of 100 to 1000 nM.
`Cc1cn2nc(-c3cc(F)c4nc(NC(=O)C5CNCC5(C)C)nn4c3)cc(C)c2n1` (stereo not shown) [Compound 319, N-(6-(2,8-dimethylimidazo[1,2-b]pyridazin-6-yl)-8-fluoro-[1,2,4]triazolo[1,5-a]pyridin-2-yl)-4,4-dimethylpyrrolidine-3-carboxamide] gave an IC50 of 1000 to 9000 nM.
Molecule `Fc1cc(-c2ccc3ncsc3c2)cn2cc(C3CCNCC3)nc12` [Compound 44, 6-(8-fluoro-2-(piperidin-4-yl)imidazo[1,2-a]pyridin-6-yl)benzo[d]thiazole] has an IC50 of 1000 to 9000 nM.
`Cc1cn2nc(-c3cc(F)c4nc([C@H]5[C@@H]6CN(CCF)C[C@@H]65)cn4c3)cc(C)c2n1` [Compound 216, 6-(8-fluoro-2-((1R,5S,6r)-3-(2-fluoroethyl)-3-azabicyclo[3.1.0]hexan-6-yl)imidazo[1,2-a]pyridin-6-yl)-2,8-dimethylimidazo[1,2-b]pyridazine] showed an IC50 of 100 to 1000 nM.
`Cc1cn2nc(-c3cc(F)c4nc([C@H]5CCNC6(CC6)C5)cn4c3)cc(C)c2n1` (single isomer, unassigned) [Compound 180] showed an IC50 of less than 100 nM.
Work on `Cc1cc(-c2cc(F)c3nc(C4CCNCC4)cn3c2)nc2cn(C)nc12` [Compound 92, 5-(8-fluoro-2-(piperidin-4-yl)imidazo[1,2-a]pyridin-6-yl)-2,7-dimethyl-2H-pyrazolo[4,3-b]pyridine] yielded an IC50 of less than 100 nM.
`Cc1cn2nc(-c3cc(F)c4nc(C(=O)NC[C@H]5CCCCN5C)cn4c3)cc(C)c2n1` [Compound 335, 6-(2,8-dimethylimidazo[1,2-b]pyridazin-6-yl)-8-fluoro-N-[[(2R)-1-methyl-2-piperidyl]methyl]imidazo[1,2-a]pyridine-2-carboxamide] was tested, and the IC50 was 100 to 1000 nM.
`Cc1cn2nc(-c3cc(F)c4nc(C5(F)CCNCC5)cn4c3)cc(C)c2n1` [Compound 158, 6-(8-fluoro-2-(4-fluoropiperidin-4-yl)imidazo[1,2-a]pyridin-6-yl)-2,8-dimethylimidazo[1,2-b]pyridazine] was tested, and the IC50 was less than 100 nM.
Work on `Cc1cn2nc(-c3cc(F)c4nn([C@H]5[C@@H]6CNC[C@@H]65)cc4c3)cc(C)c2n1` [Compound 361, 6-[2-[(1R,5S)-3-azabicyclo[3.1.0]hexan-6-yl]-7-fluoro-indazol-5-yl]-2,8-dimethyl-imidazo[1,2-b]pyridazine] yielded an IC50 of less than 100 nM.
`Cc1nc2c(C)cc(-c3cc(F)c4nn(C5CCNCC5)nc4c3)nn2n1` [Compound 390, 6-(7-fluoro-2-(piperidin-4-yl)-2H-benzo[d][1,2,3]triazol-5-yl)-2,8-dimethyl-[1,2,4]triazolo[1,5-b]pyridazine] showed an IC50 of 100 to 1000 nM.
`COCCN1CCC(c2cn3cc(-c4cc(C)c5nc(C)cn5n4)cc(F)c3n2)CC1` [Compound 46, 6-[8-fluoro-2-[1-(2-methoxyethyl)-4-piperidyl]imidazo[1,2-a]pyridin-6-yl]-2,8-dimethyl-imidazo[1,2-b]pyridazine] gave an IC50 of less than 100 nM.
Work on `Cc1cn2nc(-c3cc(F)c4nc(NC5CCN(C6CCOC6)CC5)oc4c3)cc(C)c2n1` (stereo not shown) [Compound 481, 6-(2,8-dimethylimidazo[1,2-b]pyridazin-6-yl)-4-fluoro-N-(1-(tetrahydrofuran-3-yl)piperidin-4-yl)benzo[d]oxazol-2-amine] yielded an IC50 of less than 100 nM.
`Cc1cn2nc(-c3cc(F)c4nc(C5CCC6(CC5)CC(N)C6)[nH]c4c3)cc(C)c2n1` (stereo not shown) [Compound 559, 7-(6-(2,8-dimethylimidazo[1,2-b]pyridazin-6-yl)-4-fluoro-1H-benzo[d]imidazol-2-yl)spiro[3.5]nonan-2-amine] gave an IC50 of 100 to 1000 nM.
Molecule `Cc1cn2nc(-c3cc(F)c4nc(NC(=O)C5CN(C(C)C)C5)cn4c3)cc(C(F)F)c2n1` [Compound 290, N-[6-[8-(difluoromethyl)-2-methyl-imidazo[1,2-b]pyridazin-6-yl]-8-fluoro-imidazo[1,2-a]pyridin-2-yl]-1-isopropyl-azetidine-3-carboxamide] has an IC50 of less than 100 nM.
`CN[C@H]1CCC[C@@H](c2cn3cc(-c4cc(F)c5nn(C)cc5c4)cc(F)c3n2)C1` (stereo in doubt) [Compound 163, rel-(1R,3S)-3-(8-fluoro-6-(7-fluoro-2-methyl-2H-indazol-5-yl)imidazo[1,2-a]pyridin-2-yl)-N-methylcyclohexan-1-amine] showed an IC50 of 100 to 1000 nM.
Molecule `Cc1cn2nc(-c3cc(F)c4nc(C5CCN(C6COC6)CC5)cn4c3)cc(C)c2n1` [Compound 99, 6-(8-fluoro-2-(1-(oxetan-3-yl)piperidin-4-yl)imidazo[1,2-a]pyridin-6-yl)-2,8-dimethylimidazo[1,2-b]pyridazine] has an IC50 of less than 100 nM.
`Cc1cn2nc(-c3cc(F)c4nc(NC(=O)[C@H]5[C@@H]6CNC[C@@H]65)cn4c3)cc(C)c2n1` [Compound 246, (1R,5S,6r)-N-(6-(2,8-dimethylimidazo[1,2-b]pyridazin-6-yl)-8-fluoroimidazo[1,2-a]pyridin-2-yl)-3-azabicyclo[3.1.0]hexane-6-carboxamide] was tested, and the IC50 was less than 100 nM.
`Cc1cn2nc(-c3cc(F)c4nc(C5CCNCC5)cn4c3)cc(C(F)F)c2n1` [Compound 153, 8-(difluoromethyl)-6-(8-fluoro-2-(piperidin-4-yl)imidazo[1,2-a]pyridin-6-yl)-2-methylimidazo[1,2-b]pyridazine] was tested, and the IC50 was less than 100 nM.
Work on `CCN1CCC(c2cn3cc(-c4ccc5nc(C)cn5n4)cc(F)c3n2)CC1` [Compound 3, 6-(2-(1-ethylpiperidin-4-yl)-8-fluoroimidazo[1,2-a]pyridin-6-yl)-2-methylimidazo[1,2-b]pyridazine] yielded an IC50 of less than 100 nM.
`CCN1CCC(c2cn3cc(-c4cc(C)c5nc(C)cn5c4)cc(F)c3n2)CC1` [Compound 27, 2-(1-ethylpiperidin-4-yl)-8-fluoro-2′,8′-dimethyl-6,6′-biimidazo[1,2-a]pyridine] was tested, and the IC50 was 100 to 1000 nM.
In the case of `Cc1cn2nc(-c3cc(F)c4nc(N5CCC6(CCN(C)CC6)C5)oc4c3)cc(C)c2n1` [Compound 468, 6-(2,8-dimethylimidazo[1,2-b]pyridazin-6-yl)-4-fluoro-2-(8-methyl-2,8-diazaspiro[4.5]decan-2-yl)benzo[d]oxazole], the IC50 is reported as less than 100 nM.
`Cc1nc2c(C(F)(F)F)cc(-c3cc(F)c4nn(C5CCNCC5)nc4c3)nn2n1` [Compound 391, 6-(7-fluoro-2-(piperidin-4-yl)-2H-benzo[d][1,2,3]triazol-5-yl)-2-methyl-8-(trifluoromethyl)-[1,2,4]triazolo[1,5-b]pyridazine] was tested, and the IC50 was less than 100 nM.
In the case of `COc1cc(-c2cc(F)c3nn(C4CCN(C)CC4)cc3c2)nn2nc(C)nc12` [Compound 358, 6-(7-fluoro-2-(1-methylpiperidin-4-yl)-2H-indazol-5-yl)-8-methoxy-2-methyl-[1,2,4]triazolo[1,5-b]pyridazine], the IC50 is reported as less than 100 nM.
`Fc1cc(-c2ccc3nsnc3c2)cn2cc(C3CCNCC3)nc12` [Compound 54, 5-(8-fluoro-2-(piperidin-4-yl)imidazo[1,2-a]pyridin-6-yl)benzo[c][1,2,5]thiadi azole] gave an IC50 of 1000 to 9000 nM.
`Cc1cn2nc(-c3ccc4nc(C5CCNCC5)c(F)n4c3)cc(C)c2n1` [Compound 557] showed an IC50 of less than 100 nM.
`Cc1cn2nc(-c3cc(F)c4nn(C5CCNCC5)cc4c3)ccc2n1` [Compound 365, 6-(7-fluoro-2-(piperidin-4-yl)-2H-indazol-5-yl)-2-methylimidazo[1,2-b]pyridazine] gave an IC50 of less than 100 nM.
In the case of `Cc1cn2nc(-c3cc(F)c4nn(C5CCNCC5)cc4c3)cc(C)c2n1` [Compound 355, 6-(7-fluoro-2-(piperidin-4-yl)-2H-indazol-5-yl)-2,8-dimethylimidazo[1,2-b]pyridazine], the IC50 is reported as less than 100 nM.
For `Cc1cn2nc(-c3cc(F)c4nc(C5CCN(C6CC6)CC5)nn4c3)cc(C)c2n1` [Compound 433, 2-(1-cyclopropylpiperidin-4-yl)-6-(2,8-dimethylimidazo[1,2-b]pyridazin-6-yl)-8-fluoro-[1,2,4]triazolo[1,5-a]pyridine], the IC50 was 100 to 1000 nM.
`Cc1nc2c(C)cc(-c3cc(F)c4nc(C5CCN(C)CC5)cn4c3)nn2n1` [Compound 224] was tested, and the IC50 was less than 100 nM.
Work on `Cc1cn2nc(-c3cc(F)c4nc(NC(=O)C5CNC5(C)C)cn4c3)cc(C)c2n1` (racemic) [Compound 260, N-(6-(2,8-dimethylimidazo[1,2-b]pyridazin-6-yl)-8-fluoroimidazo[1,2-a]pyridin-2-yl)-2,2-dimethylazetidine-3-carboxamide] yielded an IC50 of 100 to 1000 nM.
`Cc1cn2nc(-c3cc(F)c4nc(N5CCC56CCN(C)CC6)oc4c3)cc(C)c2n1` [Compound 493, 6-(2,8-dimethylimidazo[1,2-b]pyridazin-6-yl)-4-fluoro-2-(7-methyl-1,7-diazaspiro[3.5]nonan-1-yl)benzo[d]oxazole] showed an IC50 of 100 to 1000 nM.
Molecule `Cc1cn2nc(-c3cc(F)c4nc([C@]56CC[C@@H](C5)NC6)cn4c3)cc(C)c2n1` (single isomer, unassigned) [Compound 115] has an IC50 of 100 to 1000 nM.
`Cc1cn2nc(-c3cc(F)c4nc(C5CCN(CC6CC6)CC5)cn4c3)cc(C)c2n1` [Compound 165, 6-(2-(1-(cyclopropylmethyl)piperidin-4-yl)-8-fluoroimidazo[1,2-a]pyridin-6-yl)-2,8-dimethylimidazo[1,2-b]pyridazine] showed an IC50 of less than 100 nM.
With `CCc1cc(-c2cc(F)c3nc(C4CCNCC4)cn3c2)cn2cc(C)nc12` [Compound 103, 8-ethyl-8′-fluoro-2-methyl-2′-(piperidin-4-yl)-6,6′-biimidazo[1,2-a]pyridine] the IC50 was 100 to 1000 nM.
`CC(=O)N1CCC(c2cn3cc(-c4cc(C)c5nc(C)cn5n4)cc(F)c3n2)CC1` [Compound 74, 1-[4-[6-(2,8-dimethylimidazo[1,2-b]pyridazin-6-yl)-8-fluoro-imidazo[1,2-a]pyridin-2-yl]-1-piperidyl]ethanone] showed an IC50 of 100 to 1000 nM.
`Cc1nc2ccc(-c3cc(F)c4nc(C5CCNCC5)cn4c3)cn2n1` [Compound 37, 6-(8-fluoro-2-(piperidin-4-yl)imidazo[1,2-a]pyridin-6-yl)-2-methyl-[1,2,4]triazolo[1,5-a]pyridine] showed an IC50 of 1000 to 9000 nM.
